Molecular target: T1, Aromatase (Homo sapiens, UniProt P11511)
T1 sequence (P11511 whole entry): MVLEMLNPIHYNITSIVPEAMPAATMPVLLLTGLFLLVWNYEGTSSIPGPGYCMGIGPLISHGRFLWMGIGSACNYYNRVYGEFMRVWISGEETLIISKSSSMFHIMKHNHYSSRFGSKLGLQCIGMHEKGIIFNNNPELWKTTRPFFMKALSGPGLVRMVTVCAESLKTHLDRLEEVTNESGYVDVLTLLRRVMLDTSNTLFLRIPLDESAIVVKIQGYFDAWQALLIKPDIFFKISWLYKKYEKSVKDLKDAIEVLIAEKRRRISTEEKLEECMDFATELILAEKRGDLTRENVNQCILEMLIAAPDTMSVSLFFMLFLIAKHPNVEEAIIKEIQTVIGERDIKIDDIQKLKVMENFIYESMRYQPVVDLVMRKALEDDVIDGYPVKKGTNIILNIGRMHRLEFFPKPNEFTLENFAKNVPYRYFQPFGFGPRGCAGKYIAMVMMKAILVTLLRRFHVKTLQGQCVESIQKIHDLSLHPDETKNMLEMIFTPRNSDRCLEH
Test: Inhibition of binding to human Placental Cytochrome P450 19A1

| Compound | Ki [nM] |
| --- | --- |
| C[C@]12CCC3C(CCC4=CC(=O)CC[C@@]43C(O)CBr)C1CCC2=O (single isomer, unassigned; 11a) | 27 |
| C[C@]12CCC3C(CCC4=CC(=O)[C@H]5C[C@@H](O)[C@]43C5)C1CCC2=O (single isomer, unassigned) | 870 |
| C[C@]12CCC3C(CCC4=CC(=O)[C@H]5C[C@H](O)[C@]43C5)C1CCC2=O (single isomer, unassigned) | 926 |
| C[C@]12CCC3C(CCC4=CC(=O)[C@H]5CC[C@]43C5)C1CCC2=O (some centres undefined) | 70 |
